Test results published in patent US5451601A, “Perhydroisoindole derivatives and pharmaceutical compositions containing them” (Rhone-Poulenc Rorer S.A., priority 1991, dated 1995).

What was measured:
Format in all cases: in vivo
[1] = analgesic activity, technique of Siegmund E. et al.; settings: po
From the text: Exp. Biol. Med., 95, 729 (1957).

[2] = test system: septide (agonist of substance P); experiment: inhibition of the increase in capillary permeability brought about by septide, technique of A. Saria et al. adapted to mice; settings: Mus musculus, sc, septide-induced increase in capillary permeability
From the text: The study of a number of isoindole derivatives of general formula (I) according to the technique of A. Saria et al., Arch.

[3] = test system: substance P; experiment: antagonism of the hypotension induced by substance P, technique of C. A. Maggi et al.; settings: rats; product 1 mg/kg i.v./min for 5 min; hypotension induced by i.v. injection of substance P
From the text: Injection of substance P into animals produces hypotension. The products studied in the technique of C. A. Maggi et al., J. Auton.

Row | SMILES | ED50 [1] [mg/kg] | ED50 [2] [mg/kg] | % inhibition of hypotension [3] [%]
1 | CN(C)CCCOc1ccccc1CC(=O)N1C[C@@H]2[C@H](F)CCC(c3ccccc3)(c3ccccc3)[C@@H]2C1.Cl [Example 1, (3aR,7R,7aR)-2-{[2-(3-dimethylaminopropoxy)phenyl]acetyl}-4,4-diphenyl-7-fluoroperhydroisoindole hydrochloride] | 3 | 0.7 | 73
2 | O=C(Cc1ccccc1OCCCN1CCCC1)N1C[C@@H]2[C@H](F)CCC(c3ccccc3)(c3ccccc3)[C@@H]2C1 [Example 2] | 2 | 0.3 | 68
3 | COc1ccccc1[C@H](C)C(=O)N1C[C@@H]2[C@H](F)CCC(c3ccccc3)(c3ccccc3)[C@@H]2C1 [Example 7, (3aR,7R,7aR)-4,4-diphenyl-7-fluoro-2-[(S)-2-(2-methoxyphenyl)propionyl]perhydroisoindole] | 1.5 | 0.32 | –
